The values that follow come from US6403600B1, “Methoximinophenylacetic acid amides” (Bayer Aktiengesellschaft, priority 1998, dated 2002).

A short description of the data set: logP determination by HPLC (EEC-Directive 79/831 Annex V. A8). As to conditions: gradient method, acetonitrile/0.1% aqueous phosphoric acid. Type of data set: physicochemical.
On to `CON=C(C(=O)N(C)SC(F)(Cl)Cl)c1ccccc1CON=C(C)c1cccc(Cl)c1` [Example 77], for which the logP (usually a log measure of how a compound divides between an organic and an aqueous phase) is listed as 5.79.
As for `CON=C(C(=O)N(C)SC(F)(F)F)c1ccccc1CON=C(C)c1cccc(Cl)c1` [Example 78], the lipophilicity (logP) came out at 5.39.
As to `CON=C(C(=O)N(C)SC(F)(Cl)Cl)c1ccccc1CON=C(C)c1ccc(OC)c(OC)c1` [Example 79], the lipophilicity (logP) was 4.7.
`CON=C(C(=O)N(C)SC(F)(F)F)c1ccccc1CON=C(C)c1ccc(OC)c(OC)c1` [Example 80] yielded a logP of 4.36.
The molecule `CON=C(C(=O)N(C)SC(=O)OC)c1ccccc1CON=C(C)c1cccc(Cl)c1` [Example 81] showed a log partition coefficient (logP) of 4.71.
Turning to `CON=C(C(=O)N(C)SC(=O)OC)c1ccccc1CON=C(C)c1ccc(OC)c(OC)c1` [Example 82], the lipophilicity (logP) worked out at 3.7.
For `CON=C(C(=O)N(C)SC(F)(Cl)Cl)c1ccccc1CON=C(C)c1cccc(F)c1` [Example 83], the logP was determined as 5.36.
The value for `CON=C(C(=O)N(C)SC(F)(F)F)c1ccccc1CON=C(C)c1cccc(F)c1` [Example 84] was 4.97; that for `CON=C(C(=O)N(C)SC(F)(Cl)Cl)c1ccccc1Oc1ncnc(Oc2cccc(Cl)c2C)c1F` [Example 86] was 5.59.
`CON=C(C(=O)N(C)SC(F)(Cl)Cl)c1ccccc1Oc1ncnc(Oc2cccc(C=O)c2Cl)c1F` [Example 87] yielded a log partition coefficient (logP) of 4.72.
For the molecule `CON=C(C(=O)N(C)SC(F)(Cl)Cl)c1ccccc1Oc1ncnc(Oc2ccccc2)c1F` [Example 88], the logP amounted to 4.76.
`CON=C(C(=O)N(C)SC(F)(Cl)Cl)c1ccccc1Oc1ncnc(Oc2ccccc2C)c1F` [Example 89] came in with a lipophilicity (logP) of 5.05.
In turn, `CON=C(C(=O)N(C)SC(F)(Cl)Cl)c1ccccc1Oc1ncnc(Oc2ccc(C)cc2C)c1F` [Example 90] displayed a logP of 5.41.
`CON=C(C(=O)N(C)SC(F)(Cl)Cl)c1ccccc1Oc1ncnc(Oc2cccc(Cl)c2Cl)c1F` [Example 91] yielded a logP of 5.46.
With `CON=C(C(=O)N(C)SC(F)(Cl)Cl)c1ccccc1Oc1ncnc(Oc2cccc(C)c2C)c1F` [Example 92], the logP amounted to 5.34.
`CON=C(C(=O)N(C)SC(F)(Cl)Cl)c1ccccc1Oc1ncnc(Oc2ccccc2OC(F)(F)F)c1F` [Example 93]: the lipophilicity (logP) came to 5.2.
`CON=C(C(=O)N(C)SC(F)(Cl)Cl)c1ccccc1Oc1ncnc(Oc2ccccc2OC(F)F)c1F` [Example 94]: the log partition coefficient (logP) was 4.7.
Molecule `CCSCc1ccccc1Oc1ncnc(Oc2ccccc2C(=NOC)C(=O)N(C)SC(F)(Cl)Cl)c1F` [Example 95] returned a logP of 5.36.
`CON=C(C(=O)N(C)SC(F)(Cl)Cl)c1ccccc1Oc1ncnc(Oc2cccc3c2OC(C)(C)C3)c1F` [Example 96] had a log partition coefficient (logP) of 5.27.
`CON=C(C(=O)N(C)SC(F)(Cl)Cl)c1ccccc1Oc1ncnc(Oc2c(C)cccc2C)c1F` [Example 97] displayed a logP of 5.4.
On to `CN(SC(F)(Cl)Cl)C(=O)C(=NOCF)c1ccccc1Oc1ncnc(Oc2ccccc2Cl)c1F` [Example 98], for which the logP is reported as 4.84.
The molecule `CON=C(C(=O)N(C)SC(F)(Cl)Cl)c1ccccc1Oc1ncnc(Oc2ccc(OC(F)(F)F)cc2Cl)c1F` [Example 99] returned a logP of 5.08.
For `CON=Cc1cccc(Oc2ncnc(Oc3ccccc3C(=NOC)C(=O)N(C)SC(F)(Cl)Cl)c2F)c1` [Example 100], the lipophilicity (logP) is on record as 5.81.
In turn, `CON=C(C(=O)N(C)SC(F)(Cl)Cl)c1ccccc1Oc1ncnc(Oc2cccc(Br)c2)c1F` [Example 101] showed a logP of 5.39.
Take `CON=C(C(=O)N(C)SC(F)(Cl)Cl)c1ccccc1Oc1ncnc(Oc2ccc(Cl)cc2Cl)c1F` [Example 102]: the lipophilicity (logP) was 5.76.
Under `CON=C(C(=O)N(C)SC(F)(Cl)Cl)c1ccccc1Oc1ncnc(Oc2cc(Cl)cc(Cl)c2)c1F` [Example 103] stands 5.71.
`CON=C(C(=O)N(C)SC(F)(Cl)Cl)c1ccccc1Oc1ncnc(Oc2ccc(Br)cc2)c1F` [Example 104] gave a logP of 5.19.
Molecule `CON=C(C(=O)N(C)SC(F)(Cl)Cl)c1ccccc1Oc1ncnc(Oc2ccccc2F)c1F` [Example 105] registered a log partition coefficient (logP) of 4.73.
The value for `CON=C(C(=O)N(C)SC(F)(Cl)Cl)c1ccccc1Oc1ncnc(Oc2cccc(C(F)(F)F)c2)c1F` [Example 106] was 5.11; that for `CON=C(C(=O)N(C)SC(F)(Cl)Cl)c1ccccc1Oc1ncnc(Oc2ccc(C#N)cc2)c1F` [Example 107] was 4.34.
Molecule `CON=C(C(=O)N(C)SC(F)(Cl)Cl)c1ccccc1Oc1ncnc(Oc2ccc(OC)cc2)c1F` [Example 108] returned a logP of 4.63.
Under `CCc1ccccc1Oc1ncnc(Oc2ccccc2C(=NOC)C(=O)N(C)SC(F)(Cl)Cl)c1F` [Example 109] stands 5.25; under `CCOc1ccccc1Oc1ncnc(Oc2ccccc2C(=NOC)C(=O)N(C)SC(F)(Cl)Cl)c1F` [Example 110], 4.86; under `CON=C(C(=O)N(C)SC(F)(Cl)Cl)c1ccccc1Oc1ncnc(Oc2ccccc2C(C)(C)C)c1F` [Example 111], 5.73.
The molecule `CON=C(C(=O)N(C)SC(F)(Cl)Cl)c1ccccc1Oc1ncnc(Oc2ccc(C(F)(F)F)cc2OC)c1F` [Example 112] registered a log partition coefficient (logP) of 5.16.
`CON=C(C(=O)N(C)SC(F)(Cl)Cl)c1ccccc1Oc1ncnc(Oc2cccc(C)c2[N+](=O)[O-])c1F` [Example 113] displayed a logP of 4.71.
Molecule `CON=C(C(=O)N(C)SC(F)(Cl)Cl)c1ccccc1Oc1ncnc(Oc2ccc(F)cc2Cl)c1F` [Example 114] came in with a logP of 5.14.
The molecule `CON=C(C(=O)N(C)SC(F)(Cl)Cl)c1ccccc1Oc1ncnc(Oc2ccc(Cl)c(Cl)c2)c1F` [Example 115] returned a lipophilicity (logP) of 5.58.
In turn, `CON=C(C(=O)N(C)SC(F)(Cl)Cl)c1ccccc1Oc1ncnc(Oc2ccc(F)cc2F)c1F` [Example 116] displayed a log partition coefficient (logP) of 4.85.
In turn, `CON=C(C(=O)N(C)SC(F)(Cl)Cl)c1ccccc1Oc1ncnc(Oc2cccc(Cl)c2)c1F` [Example 117] registered a logP of 5.14.
Under `CON=C(C(=O)N(C)SC(F)(Cl)Cl)c1ccccc1Oc1ncnc(Oc2cccc(F)c2)c1F` [Example 118] stands 4.76; under `CON=C(C(=O)N(C)SC(F)(Cl)Cl)c1ccccc1Oc1ncnc(Oc2ccccc2C#N)c1F` [Example 119], 4.28; under `CON=C(C(=O)N(C)SC(F)(Cl)Cl)c1ccccc1Oc1ncnc(Oc2ccc(C)cc2)c1F` [Example 120], 5.02.
In the case of `CON=C(C(=O)N(C)SC(F)(Cl)Cl)c1ccccc1Oc1ncnc(Oc2cc(C)ccc2C)c1F` [Example 121], the lipophilicity (logP) amounted to 5.34.
With `C=CCc1ccccc1Oc1ncnc(Oc2ccccc2C(=NOC)C(=O)N(C)SC(F)(Cl)Cl)c1F` [Example 122], the logP amounted to 5.3.
Molecule `CON=C(C(=O)N(C)SC(F)(Cl)Cl)c1ccccc1Oc1ncnc(Oc2ccccc2C(C)C)c1F` [Example 123] returned a lipophilicity (logP) of 5.56.
As for `CON=C(C(=O)N(C)SC(F)(Cl)Cl)c1ccccc1Oc1ncnc(Oc2cc(C)ccc2C(C)C)c1F` [Example 124], the log partition coefficient (logP) turned out to be 5.88.
`CON=C(C(=O)N(C)SC(F)(Cl)Cl)c1ccccc1Oc1ncnc(Oc2cc(Cl)ccc2C)c1F` [Example 125] yielded a lipophilicity (logP) of 5.46.
The value for `CON=C(C(=O)N(C)SC(F)(Cl)Cl)c1ccccc1Oc1ncnc(Oc2cccc(C(F)(F)F)c2Cl)c1F` [Example 126] was 5.42.
The value for `CON=C(C(=O)N(C)SC(F)(Cl)Cl)c1ccccc1Oc1ncnc(Oc2ccc(I)cc2)c1F` [Example 127] was 5.35; that for `CON=C(C(=O)N(C)SC(F)(Cl)Cl)c1ccccc1Oc1ncnc(Oc2cccc(C)c2)c1F` [Example 128] was 4.98; that for `CON=C(C(=O)N(C)SC(F)(Cl)Cl)c1ccccc1Oc1ncnc(Oc2ccccc2OC)c1F` [Example 129] was 4.57.
The value for `CON=C(C(=O)N(C)SC(F)(Cl)Cl)c1ccccc1Oc1ncnc(Oc2cccc(OC)c2)c1F` [Example 130] was 4.68; that for `CCc1ccc(Oc2ncnc(Oc3ccccc3C(=NOC)C(=O)N(C)SC(F)(Cl)Cl)c2F)cc1` [Example 131] was 5.38.
The molecule `CON=C(C(=O)N(C)SC(F)(Cl)Cl)c1ccccc1Oc1ncnc(Oc2cccc(C(C)(C)C)c2)c1F` [Example 132] had a lipophilicity (logP) of 5.84.
In turn, `CON=C(C(=O)N(C)SC(F)(Cl)Cl)c1ccccc1Oc1ncnc(Oc2ccc(OC(F)(F)F)cc2)c1F` [Example 133] had a logP of 5.3.
The value for `CCC(C)c1ccccc1Oc1ncnc(Oc2ccccc2C(=NOC)C(=O)N(C)SC(F)(Cl)Cl)c1F` (stereo not shown) [Example 134] was 5.86.
As to `CON=C(C(=O)N(C)SC(F)(Cl)Cl)c1ccccc1Oc1ncnc(Oc2ccc(N)c(Cl)c2Cl)c1F` [Example 136], the logP is reported as 4.68.
Under `CCc1cc(C)cc(Oc2ncnc(Oc3ccccc3C(=NOC)C(=O)N(C)SC(F)(Cl)Cl)c2F)c1` [Example 137] stands 5.76.
For `CON=C(C(=O)N(C)SC(F)(Cl)Cl)c1ccccc1Oc1ncnc(Oc2ccc(OC(F)(F)F)cc2C)c1F` [Example 138], the log partition coefficient (logP) is 5.65.
The value for `CON=C(C(=O)N(C)SC(F)(Cl)Cl)c1ccccc1Oc1ncnc(Oc2ccc(SC(F)(F)F)cc2)c1F` [Example 139] was 5.6.
The molecule `CON=Cc1ccccc1Oc1ncnc(Oc2ccccc2C(=NOC)C(=O)N(C)SC(F)(Cl)Cl)c1F` [Example 140] displayed a logP of 5.03.
On to `CON=C(C(=O)N(C)SC(F)(Cl)Cl)c1ccccc1Oc1cc(Oc2cccc(Cl)c2C)ncn1` [Example 141], for which the logP stood at 5.29.
`CON=C(C(C)=NOCc1ccccc1C(=NOC)C(=O)N(C)SC(F)(Cl)Cl)c1ccccc1` [Example 143] came in with a log partition coefficient (logP) of 5.48.
In turn, `CON=C(C(=O)N(C)SC(F)(Cl)Cl)c1ccccc1OC(=O)c1c(F)cccc1F` [Example 144] displayed a log partition coefficient (logP) of 4.41.
`CON=C(C(=O)N(C)SC(F)(Cl)Cl)c1ccccc1Oc1ncnc(OC)c1F` [Example 145] returned a logP of 5.45.
`CON=C(C(=O)N(C)SC(F)(Cl)Cl)c1ccccc1OC` [Example 146] had a logP of 3.69.
